The record followed here is US8778871B2 (Takeda Pharmaceutical Company Limited, priority 2004, dated 2014).

Non-standard residues stand in square brackets, D forms with d. No end group written: not given here. *: point of attachment. Arg(NO2) = N=C(NCCC[C@H](N)C(=O)O)N[N+](=O)[O-]; 2Nal = N[C@@H](Cc1ccc2ccccc2c1)C(=O)O; Cyclohexanecarbonyl = O=C(C1CCCCC1)*; Arg(Me) = CNC(=N)NCCC[C@H](N)C(=O)O; Lys(Me2) = CN(C)CCCC[C@H](N)C(=O)O; hArg = N=C(N)NCCCC[C@H](N)C(=O)O; hPhe = N[C@@H](CCc1ccccc1)C(=O)O; 2Thi = N[C@@H](Cc1cccs1)C(=O)O; Cha = N[C@@H](CC1CCCCC1)C(=O)O; NMeN = CN[C@@H](CC(N)=O)C(=O)O; aThr = C[C@H](O)[C@H](N)C(=O)O; Tos = Cc1ccc(S(=O)(=O)*)cc1; NMeS = CN[C@@H](CO)C(=O)O; Abu = CC[C@H](N)C(=O)O; Dap = NC[C@H](N)C(=O)O; Bz = O=C(c1ccccc1)*; GABA = NCCCC(=O)O; azaGly = NNC(=O)O; For = O=C*

In this assay the target is T1, hOT7T175 (Homo sapiens, UniProt Q969F8, L364H).
T1 construct: expressed in transfected cells
T1 sequence (Q969F8 whole entry L364H): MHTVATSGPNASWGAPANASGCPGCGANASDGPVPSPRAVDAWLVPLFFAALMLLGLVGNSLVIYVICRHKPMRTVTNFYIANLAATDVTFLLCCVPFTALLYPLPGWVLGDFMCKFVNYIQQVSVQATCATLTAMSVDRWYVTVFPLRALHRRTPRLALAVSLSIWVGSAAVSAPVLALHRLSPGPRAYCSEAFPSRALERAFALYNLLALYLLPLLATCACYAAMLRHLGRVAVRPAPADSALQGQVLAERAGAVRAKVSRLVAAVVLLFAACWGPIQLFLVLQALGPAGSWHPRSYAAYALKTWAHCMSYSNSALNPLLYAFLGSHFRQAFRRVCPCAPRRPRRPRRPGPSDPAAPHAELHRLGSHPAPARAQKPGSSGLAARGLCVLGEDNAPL
Type of assay: cell-based. To be noted: hOT7T175/CHO, FLIPR, evaluation for 40 seconds after initiation of the reaction.
Experimental: The intracellular Ca ion level-increasing activity was measured using FLIPR as in TEST EXAMPLE 2.
As for “Ac-[dY][dW]DTF[azaGly]L[Arg(Me)]W-NH2 [Compound No. 647]”, the “Specific Act. (EC50/MS10 EC50)” value was 10.6.
As for “Ac-[dY][dW]NS(Me)F[azaGly]L[Arg(Me)]W-NH2 [Compound No. 580]”, the “Specific Act. (EC50/MS10 EC50)” value is 0.6.
On to “Ac-[dY][dW]NTA[azaGly]L[Arg(Me)]W-NH2 [Compound No. 631]”, for which the “Specific Act. (EC50/MS10 EC50)” value was 2.
The result for “Ac-[dY][dW]NTE[azaGly]L[Arg(Me)]W-NH2 [Compound No. 634]” reads 10.5.
In the case of “Ac-[dY][dW]NTF[azaGly]A[Arg(Me)]W-NH2 [Compound No. 641]”, the “Specific Act. (EC50/MS10 EC50)” value is on record as 3.5.
Regarding “Ac-[dY][dW]NTF[azaGly]F[Arg(Me)]W-NH2 [Compound No. 643]”, the “Specific Act. (EC50/MS10 EC50)” value was determined as 2.5.
Turning to “Ac-[dY][dW]NTF[azaGly]LKW-NH2 [Compound No. 639]”, the “Specific Act. (EC50/MS10 EC50)” value was found to be 2.
With “Ac-[dY][dW]NTF[azaGly]LR(Et)W-NH2 [Compound No. 609]”, the “Specific Act. (EC50/MS10 EC50)” value worked out at 0.9.
The result for “Ac-[dY][dW]NTF[azaGly]LR(Tos)W-NH2 [Compound No. 604]” reads 6.3.
On to “Ac-[dY][dW]NTF[azaGly]L[Arg(Me)][hPhe]-NH2 [Compound No. 594]”, for which the “Specific Act. (EC50/MS10 EC50)” value was 2.1.
Take “Ac-[dY][dW]NTF[azaGly]L[Arg(NO2)]W-NH2 [Compound No. 605]”: the “Specific Act. (EC50/MS10 EC50)” value was 3.9.
On to “Ac-[dY][dW]NTF[azaGly]L[Lys(Me2)]W-NH2 [Compound No. 610]”, for which the “Specific Act. (EC50/MS10 EC50)” value is recorded as 1.9.
With “Ac-[dY][dW]NTF[azaGly]L[hArg]W-NH2 [Compound No. 645]”, the “Specific Act. (EC50/MS10 EC50)” value was 1.1.
The result for “Ac-[dY][dW]NTF[azaGly]S[Arg(Me)]W-NH2 [Compound No. 644]” reads 2.5; that for “Ac-[dY][dW]NTK[azaGly]L[Arg(Me)]W-NH2 [Compound No. 633]”, 3.4.
To “Ac-[dY][dW]NTL[azaGly]L[Arg(Me)]W-NH2 [Compound No. 632]” belongs 1.1; to “Ac-[dY][dW]NT[2Nal][azaGly]L[Arg(Me)]W-NH2 [Compound No. 694]”, 1.7.
As for “Ac-[dY][dW]NT[2Thi][azaGly]L[Arg(Me)]W-NH2 [Compound No. 695]”, the “Specific Act. (EC50/MS10 EC50)” value came out at 0.7.
Consider “Ac-[dY][dW]NT[Cha][azaGly]L[Arg(Me)]W-NH2 [Compound No. 696]”, for which the “Specific Act. (EC50/MS10 EC50)” value worked out at 0.5.
Regarding “Ac-[dY][dW]NT[dF]GL[Arg(Me)]W-NH2 [Compound No. 601]”, the “Specific Act. (EC50/MS10 EC50)” value amounted to 3.1.
As for “Ac-[dY][dW]NT[dF][azaGly]L[Arg(Me)]W-NH2 [Compound No. 597]”, the “Specific Act. (EC50/MS10 EC50)” value is 0.6.
The result for “Ac-[dY][dW]N[NMeS]F[azaGly]L[Arg(Me)]W-NH2 [Compound No. 656]” reads 2.9.
As for “Ac-[dY][dW]N[aThr]F[azaGly]L[Arg(Me)]W-NH2 [Compound No. 659]”, the “Specific Act. (EC50/MS10 EC50)” value was determined as 0.6.
For “Ac-[dY][dW]N[dT]F[azaGly]L[Arg(Me)]W-NH2 [Compound No. 654]”, the “Specific Act. (EC50/MS10 EC50)” value amounted to 2.9.
As for “Ac-[dY][dW]QSF[azaGly]L[Arg(Me)]W-NH2 [Compound No. 576]”, the “Specific Act. (EC50/MS10 EC50)” value worked out at 0.8.
The result for “Ac-[dY][dW]SSF[azaGly]L[Arg(Me)]W-NH2 [Compound No. 577]” reads 0.7; that for “Ac-[dY][dW]TSF[azaGly]L[Arg(Me)]W-NH2 [Compound No. 578]”, 0.8; that for “Ac-[dY][dW][Abu]SF[azaGly]L[Arg(Me)]W-NH2 [Compound No. 573]”, 0.7.
Take “Ac-[dY][dW][Dap](Ac)SF[azaGly]L[Arg(Me)]W-NH2 [Compound No. 584]”: the “Specific Act. (EC50/MS10 EC50)” value turned out to be 0.4.
As for “Ac-[dY][dW][Dap](For)SF[azaGly]L[Arg(Me)]W-NH2 [Compound No. 585]”, the “Specific Act. (EC50/MS10 EC50)” value stood at 0.4.
The result for “Ac-[dY][dW][Dap]SF[azaGly]L[Arg(Me)]W-NH2 [Compound No. 701]” reads 1.4; that for “Ac-[dY][dW][NMeN]TF[azaGly]L[Arg(Me)]W-NH2 [Compound No. 655]”, 4.7.
As for “Ac-[dY][dW][dN]TF[azaGly]L[Arg(Me)]W-NH2 [Compound No. 653]”, the “Specific Act. (EC50/MS10 EC50)” value was 1.3.
The result for “Amidino-D-Trp-Asn-Thr-Phe-AzaGly-Leu-Arg(Me)-Trp-NH2 (Amidino-[dW]NTF[azaGly]L[Arg(Me)]W-NH2) [Compound No. 679]” reads 1.8; that for “Amidino-D-Tyr-D-Trp-Asn-Thr-Phe-AzaGly-Leu-Arg(Me)-Trp-NH2 [Compound No. 614]”, 0.8; that for “Arg-Arg-D-Tyr-D-Pya(4)-Asn-Ser-Phe-AzaGly-Leu-Arg(Me)-Trp-NH2 [Compound No. 537]”, 4.7.
Regarding “Arg-D-Tyr-D-Pya(4)-Asn-Ser-Phe-AzaGly-Leu-Arg(Me)-Trp-NH2 [Compound No. 536]”, the “Specific Act. (EC50/MS10 EC50)” value came out at 1.8.
Turning to “Benzoyl-D-Trp-Asn-Thr-Phe-AzaGly-Leu-Arg(Me)-Trp-NH2 (Bz-[dW]NTF[azaGly]L[Arg(Me)]W-NH2; SMILES CNC(=N)NCCC[C@H](NC(=O)[C@H](CC(C)C)NC(=O)NNC(=O)[C@H](Cc1ccccc1)NC(=O)[C@@H](NC(=O)[C@H](CC(N)=O)NC(=O)[C@@H](Cc1c[nH]c2ccccc12)NC(=O)c1ccccc1)[C@@H](C)O)C(=O)N[C@@H](Cc1c[nH]c2ccccc12)C(N)=O) [Compound No. 669]”, the “Specific Act. (EC50/MS10 EC50)” value amounted to 0.5.
To “Bz-NTF[azaGly]L[Arg(Me)]W-NH2 [Compound No. 522]” belongs 1.9; to “Cyclohexanecarbonyl-D-Trp-Asn-Thr-Phe-AzaGly-Leu-Arg(Me)-Trp-NH2 (Cyclohexanecarbonyl-[dW]NTF[azaGly]L[Arg(Me)]W-NH2; SMILES CNC(=N)NCCC[C@H](NC(=O)[C@H](CC(C)C)NC(=O)NNC(=O)[C@H](Cc1ccccc1)NC(=O)[C@@H](NC(=O)[C@H](CC(N)=O)NC(=O)[C@@H](Cc1c[nH]c2ccccc12)NC(=O)C1CCCCC1)[C@@H](C)O)C(=O)N[C@@H](Cc1c[nH]c2ccccc12)C(N)=O) [Compound No. 668]”, 1.2.
In the case of “Cyclopropanecarbonyl-Asn-Ser-Phe-AzaGly-Leu-Arg(Me)-Trp-NH2 [Compound No. 534]”, the “Specific Act. (EC50/MS10 EC50)” value was determined as 5.6.
With “D-Arg-Acp-D-Tyr-D-Trp-Abu-Ser-Phe-AzaGly-Leu-Arg(Me)-Trp-NH2 [Compound No. 561]”, the “Specific Act. (EC50/MS10 EC50)” value is given as 1.6.
The result for “D-Arg-Acp-D-Tyr-D-Trp-Asn-Thr-Phe-AzaGly-Leu-Arg(Me)-Trp-NH2 [Compound No. 541]” reads 2.0; that for “D-Arg-D-Arg-Acp-D-Tyr-D-Trp-Asn-Thr-Phe-AzaGly-Leu-Arg(Me)-Trp-NH2 [Compound No. 542]”, 1.4.
Consider “D-Trp-Asn-Thr-Phe-AzaGly-Leu-Arg(Me)-Trp-NH2 ([dW]NTF[azaGly]L[Arg(Me)]W-NH2; N-terminus assumed; SMILES CNC(=N)NCCC[C@H](NC(=O)[C@H](CC(C)C)NC(=O)NNC(=O)[C@H](Cc1ccccc1)NC(=O)[C@@H](NC(=O)[C@H](CC(N)=O)NC(=O)[C@H](N)Cc1c[nH]c2ccccc12)[C@@H](C)O)C(=O)N[C@@H](Cc1c[nH]c2ccccc12)C(N)=O) [Compound No. 665]”, for which the “Specific Act. (EC50/MS10 EC50)” value is 1.1.
For the substance “D-Trp-D-Pya(4)-Asn-Ser-Phe-AzaGly-Leu-Arg(Me)-Trp-NH2 [Compound No. 572]”, the “Specific Act. (EC50/MS10 EC50)” value is 0.7.
Consider “D-Tyr-D-Pya(4)-Asn-Hyp-Phe-AzaGly-Leu-Arg(Me)-Trp-NH2 [Compound No. 527]”, for which the “Specific Act. (EC50/MS10 EC50)” value was 3.3.
Consider “D-Tyr-D-Pya(4)-Asn-Phg-Phe-AzaGly-Leu-Arg(Me)-Trp-NH2 [Compound No. 530]”, for which the “Specific Act. (EC50/MS10 EC50)” value is given as 3.4.
Turning to “D-Tyr-D-Pya(4)-Asn-Pro-Phe-AzaGly-Leu-Arg(Me)-Trp-NH2 [Compound No. 528]”, the “Specific Act. (EC50/MS10 EC50)” value is 1.4.
For the substance “D-Tyr-D-Pya(4)-Asn-Ser-Phe-AzaGly-Leu-Arg-Phe-NH2 [Compound No. 521]”, the “Specific Act. (EC50/MS10 EC50)” value is on record as 2.4.
Consider “D-Tyr-D-Pya(4)-Asn-Tle-Phe-AzaGly-Leu-Arg(Me)-Trp-NH2 [Compound No. 529]”, for which the “Specific Act. (EC50/MS10 EC50)” value is reported as 1.8.
As to “Glycoloyl-D-Trp-Asn-Thr-Phe-AzaGly-Leu-Arg(Me)-Trp-NH2 (Glycoloyl-[dW]NTF[azaGly]L[Arg(Me)]W-NH2) [Compound No. 680]”, the “Specific Act. (EC50/MS10 EC50)” value stood at 2.5.
The result for “Glycoloyl-D-Tyr-D-Trp-Asn-Thr-Phe-AzaGly-Leu-Arg(Me)-Trp-NH2 (Glycoloyl-[dY][dW]NTF[azaGly]L[Arg(Me)]W-NH2) [Compound No. 681]” reads 1.2.
Consider “Me-D-Tyr-D-Trp-Asn-Thr-Phe-AzaGly-Leu-Arg(Me)-Trp-NH2 [Compound No. 570]”, for which the “Specific Act. (EC50/MS10 EC50)” value amounted to 0.5.
To “Phenylacetyl-Asn-Ser-Phe-AzaGly-Leu-Arg(Me)-Trp-NH2 [Compound No. 519]” belongs 2.4.
For “[dR][dR][GABA][dY][dW]NTF[azaGly]L[Arg(Me)]W-NH2 [Compound No. 556]”, the “Specific Act. (EC50/MS10 EC50)” value was determined as 2.8.
As to “[dR][dR][dR][GABA][dY][dW]NTF[azaGly]L[Arg(Me)]W-NH2 [Compound No. 557]”, the “Specific Act. (EC50/MS10 EC50)” value worked out at 3.2.
As for “[dY][dW]NVF[azaGly]L[Arg(Me)]W-NH2 [Compound No. 539]”, the “Specific Act. (EC50/MS10 EC50)” value was determined as 1.2.
